# From patent publication US8093275B2, “Oxazolone and pyrrolidinone-substituted pryidine amides as P2X3 and P2X2/3 antagonists” (Roche Palo Alto LLC, priority 2009, dated 2012)
# Columns and labels:
# [1] = target: T1, rat P2X3 receptor (Rattus norvegicus, UniProt P49654); experiment: P2X3 FLIPR (Fluorometric Imaging Plate Reader) assay; assay type: cell-based; settings: CHO-K1 cells transfected with rat P2X3; agonist α,β-meATP 1 μM; FLIPR calcium fluorescence; read-out: pKi P2X3 (converted)
# T1 construct: expressed in transfected cells; host or cells: CHO-K1
# T1 sequence (P49654 1-397): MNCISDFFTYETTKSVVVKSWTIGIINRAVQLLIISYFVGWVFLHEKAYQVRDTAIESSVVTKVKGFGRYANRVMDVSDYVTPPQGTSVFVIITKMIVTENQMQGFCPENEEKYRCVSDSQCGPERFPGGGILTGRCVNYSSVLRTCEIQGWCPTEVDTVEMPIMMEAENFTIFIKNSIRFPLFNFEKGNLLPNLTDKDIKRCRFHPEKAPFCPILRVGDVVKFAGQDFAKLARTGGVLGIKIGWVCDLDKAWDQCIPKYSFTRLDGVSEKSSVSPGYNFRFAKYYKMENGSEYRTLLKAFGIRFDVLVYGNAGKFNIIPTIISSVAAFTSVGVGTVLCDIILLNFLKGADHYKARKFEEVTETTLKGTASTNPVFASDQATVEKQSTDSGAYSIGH
# Procedure, shortened: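 CHO-K1 cells expressing rat P2X3 or human P2X2/3 were loaded with Fluo-3 AM and preincubated with compound for 20 min at room temperature. Calcium fluorescence peaks were evoked by α,β-meATP at 1 μM final (P2X3) or 5 μM final (P2X2/3). Inhibition curves were fit by nonlinear regression.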
# [2] = target: T2, human P2X2/3 receptor (Homo sapiens, UniProt P56373+Q9UBL9); experiment: P2X2/3 FLIPR (Fluorometric Imaging Plate Reader) assay; assay type: cell-based; settings: CHO-K1 cells transfected with human P2X2/3; agonist α,β-meATP 5 μM; FLIPR calcium fluorescence; read-out: pKi P2X2/3 (converted)
# T2 construct: expressed in transfected cells; host or cells: CHO-K1
# T2 sequence (Q9UBL9 1-471): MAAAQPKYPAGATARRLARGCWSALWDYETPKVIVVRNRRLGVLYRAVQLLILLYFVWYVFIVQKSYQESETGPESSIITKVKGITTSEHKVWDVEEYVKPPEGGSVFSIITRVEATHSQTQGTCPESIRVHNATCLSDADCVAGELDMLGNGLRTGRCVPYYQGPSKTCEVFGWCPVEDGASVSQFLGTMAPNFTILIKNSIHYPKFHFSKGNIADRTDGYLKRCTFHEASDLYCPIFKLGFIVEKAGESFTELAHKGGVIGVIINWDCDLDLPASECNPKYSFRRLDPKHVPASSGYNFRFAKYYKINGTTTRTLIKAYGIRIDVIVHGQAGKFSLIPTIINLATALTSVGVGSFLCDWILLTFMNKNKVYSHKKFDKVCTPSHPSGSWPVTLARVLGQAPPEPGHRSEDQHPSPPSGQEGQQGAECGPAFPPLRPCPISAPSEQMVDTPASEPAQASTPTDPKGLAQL
# T2 sequence (P56373 1-397): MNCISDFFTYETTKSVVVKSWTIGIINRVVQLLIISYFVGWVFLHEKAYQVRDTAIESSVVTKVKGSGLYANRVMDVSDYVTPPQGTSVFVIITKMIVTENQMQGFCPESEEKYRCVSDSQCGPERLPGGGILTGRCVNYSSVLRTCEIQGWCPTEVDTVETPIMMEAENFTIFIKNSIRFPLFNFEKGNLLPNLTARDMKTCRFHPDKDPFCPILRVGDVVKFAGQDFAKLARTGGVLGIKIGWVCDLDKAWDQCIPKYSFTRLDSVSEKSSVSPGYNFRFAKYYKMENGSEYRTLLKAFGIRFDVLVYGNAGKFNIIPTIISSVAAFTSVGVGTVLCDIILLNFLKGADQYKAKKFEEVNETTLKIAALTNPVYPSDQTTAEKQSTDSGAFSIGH
# Procedure: CHO-K1 cells were transfected with cloned rat P2X3 or human P2X2/3 receptor subunits and passaged in flasks. 18-24 hours before the FLIPR experiment, cells were released from their flasks, centrifuged, and resuspended in nutrient medium at 2.5×10^5 cells/ml. The cells were aliquoted into black-walled 96-well plates at a density of 50,000 cells/well and incubated overnight in 5% CO2 at 37° C. On the day of the experiment, cells were washed in FLIPR buffer (calcium- and magnesium-free Hank's balanced salt solution, 10 mM HEPES, 2 mM CaCl2, 2.5 mM probenecid; FB). Each well received 100 μl FB and 100 μl of the fluorescent dye Fluo-3 AM [2 μM final conc.]. After a 1 hour dye loading incubation at 37° C., the cells were washed 4 times with FB, and a final 75 μl/well FB was left in each well.
# Test compounds (dissolved in DMSO at 10 mM and serially diluted with FB) or vehicle were added to each well (25 μl of a 4× solution) and allowed to equilibrate for 20 minutes at room temperature. The plates were then placed in the FLIPR and a baseline fluorescence measurement (excitation at 488 nm and emission at 510-570 nm) was obtained for 10 seconds before a 100 μl/well agonist or vehicle addition. The agonist was a 2× solution of α,β-meATP producing a final concentration of 1 μM (P2X3) or 5 μM (P2X2/3). Fluorescence was measured for an additional 2 minutes at 1 second intervals after agonist addition. A final addition of ionomycin (5 μM, final concentration) was made to each well of the FLIPR test plate to establish cell viability and maximum fluorescence of dye-bound cytosolic calcium. Peak fluorescence in response to the addition of α,β-meATP (in the absence and presence of test compounds) was measured and inhibition curves generated using nonlinear regression. PPADS, a standard P2X antagonist, was used as a positive control.
Ki [1],Ki [2],Compound
0.00891 µM,0.123 µM,"Cc1ccc(-c2cc(C(=O)NC3CC3)cc(N3C(=O)OC[C@H]3C(C)C)c2)c(F)c1 [Compound 49, 2′-Fluoro-5-((R)-4-isopropyl-2-oxo-oxazolidin-3-yl)-4′-methyl-biphenyl-3-carboxylic acid cyclopropylamide]"
0.00398 µM,0.0832 µM,"Cc1ccc(-c2cc(C(=O)NC3CC3)cc(N3C(=O)OC[C@H]3C(C)C)c2)cc1 [Compound 41, 5-((R)-4-Isopropyl-2-oxo-oxazolidin-3-yl)-4′-methyl-biphenyl-3-carboxylic acid cyclopropylamide]"

# Further lines, the compound ahead of its results:
Compound,Ki [1],Ki [2]
"Cc1ccc(-c2cc(C(=O)NCc3ncc(C)cn3)cc(-n3c(=O)oc4ccccc43)c2)nc1 [Compound 32, 3-(5-Methyl-pyridin-2-yl)-N-(5-methyl-pyrimidin-2-ylmethyl)-5-(2-oxo-benzooxazol-3-yl)-benzamide]",0.00457 µM,0.0245 µM
"Cc1ccc(-c2cc(C(=O)NC(C)c3cnccn3)cc(N3C(=O)OCC3(C)C)c2)nc1 (stereo not shown) [Compound 20, 3-(4,4-Dimethyl-2-oxo-oxazolidin-3-yl)-5-(5-methyl-pyridin-2-yl)-N-(1-pyrazin-2-yl-ethyl)-benzamide]",0.00631 µM,0.123 µM
"Cc1ccc(-c2cc(C(=O)NC(C)c3cnccn3)cc(N3C(=O)Cc4ccccc43)c2)nc1 (stereo not shown) [Compound 6, 3-(5-Methyl-pyridin-2-yl)-5-(2-oxo-2,3-dihydro-indol-1-yl)-N-(1-pyrazin-2-yl-ethyl)-benzamide]",0.00741 µM,0.117 µM
